# From patent publication US20040241225A1, “Modulation of vitamin storage” (priority 2001, published 2004)
# How the values were obtained:
# [1] = Liver TP level 24 h after a single dose of TP or tocopheryl acetate, quantitated by ESMS; conditions: rat, 24 h after administration
# [2] = format: physicochemical
# Experimental: An extraction method was developed which gave the maximum recovery of TP. The stability of TP to the extraction methodology was tested by subjecting pure TP to the extraction protocol, virtually 100% recovery was obtained.
# [3] = Solubility of α-tocopheryl phosphate; format: physicochemical
substance,measurement,setting,value
α-tocopheryl phosphate [TP],liver TP,"[1]; i.v., single dose 3 mg/kg",17 ug ug/gm
same,liver TP,"[1]; i.v., single dose 10 mg/kg",24 ug ug/gm
same,liver TP,"[1]; i.v., single dose 30 mg/kg",28 ug ug/gm
same,liver TP,"[1]; i.v., single dose 100 mg/kg",27 ug ug/gm
same,liver TP,"[1]; oral, single dose 10 mg/kg",19.18 ug ug/gm
same,liver TP,"[1]; oral, single dose 30 mg/kg",18.35 ug ug/gm
same,resistance to hydrolysis,[2]; alkaline and acid hydrolysis conditions of standard α-tocopherol extraction procedures,resistant to all of the alkaline and acid hydrolysis conditions
same,resistance to oxidation,[2]; conditions of the standard colorimetric α-tocopherol analysis,resistant to oxidation
same,cleavage of the phosphate bond,[2]; refluxing under strongly alkaline or acidic conditions in excess of 24 hours,does not lead to any cleavage of the phosphate bond
same,solubility in water,[3]; high pH,soluble
same,solubility in organic solvents,[3]; low pH,soluble
